Data from the NIST ThermoML archive (doi:10.1021/je200213h).
Numbers after ± are expanded uncertainties.

How the values were obtained:
[1] = xn = mol fraction of the nth substance listed; conditions: 101 kPa, Liquid, Capillary tube (Ostwald / Ubbelohde) method
[2] = 101.33 kPa, Liquid, Capillary tube (Ostwald / Ubbelohde) method

CCCCCl [1-chlorobutane] + CCCCCCC
kinematic viscosity [m2/s], [1]
Conditions	283.15 K	298.15 K	313.15 K
x1 = 0.0508	5.595e-07 ± 4.7e-09	4.824e-07 ± 4.2e-09	4.248e-07 ± 3.7e-09
x1 = 0.1017	5.632e-07 ± 4.7e-09	4.857e-07 ± 4.2e-09	4.278e-07 ± 3.8e-09
x1 = 0.1981	5.703e-07 ± 4.8e-09	4.927e-07 ± 4.2e-09	4.335e-07 ± 3.8e-09
x1 = 0.2989	5.788e-07 ± 4.9e-09	5e-07 ± 4.3e-09	4.396e-07 ± 3.8e-09
x1 = 0.4022	5.882e-07 ± 4.9e-09	5.088e-07 ± 4.3e-09	4.471e-07 ± 3.9e-09
x1 = 0.4998	5.984e-07 ± 5e-09	5.177e-07 ± 4.4e-09	4.545e-07 ± 4e-09
x1 = 0.6008	6.102e-07 ± 5.1e-09	5.278e-07 ± 4.5e-09	4.624e-07 ± 4e-09
x1 = 0.6989	6.229e-07 ± 5.2e-09	5.386e-07 ± 4.6e-09	4.705e-07 ± 4.1e-09
x1 = 0.7985	6.367e-07 ± 5.3e-09	5.501e-07 ± 4.7e-09	4.792e-07 ± 4.1e-09
x1 = 0.898	6.52e-07 ± 5.4e-09	5.626e-07 ± 4.7e-09	4.882e-07 ± 4.2e-09
x1 = 0.9498	6.608e-07 ± 5.5e-09	5.692e-07 ± 4.8e-09	4.935e-07 ± 4.2e-09

CCC(C)(C)C [2,2-dimethylbutane]
[2]
Conditions	kinematic viscosity [m2/s]
283.15 K	6.234e-07 ± 5.2e-09
298.15 K	5.206e-07 ± 4.4e-09
313.15 K	4.579e-07 ± 4e-09

CCC(C)(C)C [2,2-dimethylbutane] + CC(C)(C)Cl
kinematic viscosity [m2/s], [1]
Conditions	283.15 K	298.15 K	313.15 K
x1 = 0.0499	6.937e-07 ± 5.7e-09	5.657e-07 ± 4.8e-09	4.748e-07 ± 4.1e-09
x1 = 0.1017	6.864e-07 ± 5.6e-09	5.592e-07 ± 4.7e-09	4.715e-07 ± 4.1e-09
x1 = 0.1983	6.729e-07 ± 5.5e-09	5.493e-07 ± 4.6e-09	4.664e-07 ± 4e-09
x1 = 0.3004	6.6e-07 ± 5.5e-09	5.405e-07 ± 4.6e-09	4.607e-07 ± 4e-09
x1 = 0.399	6.491e-07 ± 5.4e-09	5.333e-07 ± 4.5e-09	4.568e-07 ± 4e-09
x1 = 0.4989	6.399e-07 ± 5.3e-09	5.275e-07 ± 4.5e-09	4.538e-07 ± 3.9e-09
x1 = 0.6017	6.32e-07 ± 5.2e-09	5.225e-07 ± 4.4e-09	4.522e-07 ± 3.9e-09
x1 = 0.7034	6.27e-07 ± 5.2e-09	5.2e-07 ± 4.4e-09	4.518e-07 ± 3.9e-09
x1 = 0.8	6.228e-07 ± 5.2e-09	5.18e-07 ± 4.4e-09	4.519e-07 ± 3.9e-09
x1 = 0.8967	6.221e-07 ± 5.2e-09	5.184e-07 ± 4.4e-09	4.541e-07 ± 3.9e-09
x1 = 0.9504	6.224e-07 ± 5.2e-09	5.19e-07 ± 4.4e-09	4.556e-07 ± 4e-09

CCC(C)(C)C [2,2-dimethylbutane] + CC(C)CCl
kinematic viscosity [m2/s], [1]
Conditions	283.15 K	298.15 K	313.15 K
x1 = 0.0487	5.82e-07 ± 4.9e-09	4.94e-07 ± 4.2e-09	4.366e-07 ± 3.8e-09
x1 = 0.0994	5.816e-07 ± 4.9e-09	4.941e-07 ± 4.2e-09	4.365e-07 ± 3.8e-09
x1 = 0.1995	5.814e-07 ± 4.9e-09	4.939e-07 ± 4.2e-09	4.362e-07 ± 3.8e-09
x1 = 0.2985	5.821e-07 ± 4.9e-09	4.939e-07 ± 4.2e-09	4.363e-07 ± 3.8e-09
x1 = 0.3993	5.834e-07 ± 4.9e-09	4.942e-07 ± 4.2e-09	4.366e-07 ± 3.8e-09
x1 = 0.5018	5.866e-07 ± 4.9e-09	4.958e-07 ± 4.3e-09	4.38e-07 ± 3.8e-09
x1 = 0.6011	5.899e-07 ± 4.9e-09	4.986e-07 ± 4.3e-09	4.402e-07 ± 3.8e-09
x1 = 0.6985	5.953e-07 ± 5e-09	5.025e-07 ± 4.3e-09	4.439e-07 ± 3.9e-09
x1 = 0.7995	6.024e-07 ± 5e-09	5.071e-07 ± 4.3e-09	4.476e-07 ± 3.9e-09
x1 = 0.8988	6.115e-07 ± 5.1e-09	5.13e-07 ± 4.4e-09	4.524e-07 ± 3.9e-09
x1 = 0.9479	6.158e-07 ± 5.1e-09	5.163e-07 ± 4.4e-09	4.542e-07 ± 4e-09

CCC(C)(C)C [2,2-dimethylbutane] + CCC(C)Cl
kinematic viscosity [m2/s], [1]
Conditions	283.15 K	298.15 K	313.15 K
x1 = 0.0448	5.266e-07 ± 4.5e-09	4.621e-07 ± 4e-09	4.07e-07 ± 3.6e-09
x1 = 0.0993	5.3e-07 ± 4.5e-09	4.64e-07 ± 4e-09	4.086e-07 ± 3.6e-09
x1 = 0.2003	5.356e-07 ± 4.5e-09	4.679e-07 ± 4.1e-09	4.12e-07 ± 3.6e-09
x1 = 0.301	5.421e-07 ± 4.6e-09	4.719e-07 ± 4.1e-09	4.157e-07 ± 3.7e-09
x1 = 0.3993	5.494e-07 ± 4.6e-09	4.761e-07 ± 4.1e-09	4.2e-07 ± 3.7e-09
x1 = 0.4989	5.579e-07 ± 4.7e-09	4.815e-07 ± 4.1e-09	4.251e-07 ± 3.7e-09
x1 = 0.6039	5.683e-07 ± 4.8e-09	4.88e-07 ± 4.2e-09	4.309e-07 ± 3.8e-09
x1 = 0.7002	5.793e-07 ± 4.9e-09	4.949e-07 ± 4.2e-09	4.368e-07 ± 3.8e-09
x1 = 0.8033	5.935e-07 ± 5e-09	5.036e-07 ± 4.3e-09	4.438e-07 ± 3.9e-09
x1 = 0.9028	6.07e-07 ± 5.1e-09	5.122e-07 ± 4.4e-09	4.508e-07 ± 3.9e-09
x1 = 0.9518	6.147e-07 ± 5.1e-09	5.165e-07 ± 4.4e-09	4.546e-07 ± 4e-09
